The conditions of series [1]: oral administration of the approved dose of 200 μg/kg; read-out: maximum plasma concentration (Cmax); cited from earlier work.
The conditions of series [2]: oral administration of the ivermectin tablets, 600 μg/kg once daily; patient with 100% viral load reduction.
A further series concerns SARS-CoV-2. Put plainly: viral load by real-time (RT) PCR in the nasal mucosa of SARS-CoV-2 positive patients. It is filed as in vivo. The source says: The term “viral load” is well known to a person skilled in the art. The term “viral load” is a measure of the severity of an active viral infection, and can be determined by methods known to the person skilled in the art. As an Example, the viral load can be calculated by estimating the live amount of virus in an involved body fluid such as a number of RNA copies per milliliter of blood plasma. For example, the viral load can be determined by a real-time (RT) PCR test.
Ivermectin tablets as produced in Example 1 were administered for seven days in a daily dose of 600 μg/kg once daily to 9 patients (IVM) which have been tested to be positive for SARS-CoV-2, whereas 7 patients (control) which have been tested to be positive for SARS-CoV-2, received placebo tablets during said 7 days period.
The viral load was measured by a real-time (RT) PCR test on treatment days 1, 3, 5 and 7 in the nasal mucosa.

Another series concerns SARS-CoV-2 virus. As to conditions: cited from earlier work.
The conditions of series [3]: increasing doses from 150 μg/kg/day to 1600 μg/kg/day, onchoceriasis patients; cited from earlier work.

As to ivermectin, the Cmax in series [1] is 50 nM. Besides, the “ivermectin (IVM) concentration in the blood, single patient” value in series [2] amounted to 183 ng/mL. The “reduction in viral load” value in the series on SARS-CoV-2 (Day 7, 600 μg/kg once daily for seven days, 9 patients, nasal mucosa) was “more than 50%”. Moreover, in the series on SARS-CoV-2 (each timepoint (days 1, 3, 5, 7), 600 μg/kg once daily, nasal mucosa), the “reduction of the viral load compared with control” value is on record as “greater reduction of the viral load at each timepoint”. The “Decay rate of viral load, single patient” value in the series on SARS-CoV-2 (the patient with 183 ng/ml IVM concentration) was 0.54 day⁻¹. The “viral load reduction in the nasal mucosa, single patient” value in the series on SARS-CoV-2 (the patient with 183 ng/ml ivermectin concentration in the blood) came to 100%. Further, the IC50 in the series on SARS-CoV-2 virus (SARS-CoV-2 replication in vitro, read-out: concentration resulting in 50% inhibition (IC50)) was 2 µM. In addition, in the series with SARS-CoV-2 virus (ivermectin at 5 μM), the “inhibition of replication of SARS-CoV-2 virus in vitro” value is listed as “inhibit the replication of SARS-CoV-2 virus in vitro”. Besides, the tolerability entry in series [3] was “well tolerated”.

The values above are taken from patent US20220023221A1, “Oral Unit Dosage Form Of Ivermectin” (CHEMO RESEARCH, S.L., priority 2020, published 2022).
